Laboratory results reported in PMC3551614 (Journal of the American Chemical Society, 2012).
Several values for one entry are separate records, joined by “and”; a condition that tells them apart may be missing. Identical values can stand only once. Like-named read-outs stand apart in the source and are kept apart here. Marks after values point to notes of the source that are not given here. Numbered stars: 1 amine (or outer) side, 2 acyl side, 3 side chain; on linkers, the order of the positions; unused ones are H or OH. Bridge positions count the residues as written; N and C are the ends. Square brackets hold non-standard residues; d marks the D form. Ends that are not written are not given here. Peptide text beside a SMILES is read from it. β3hW = N[C@H](CC(=O)O)Cc1c[nH]c2ccccc12; X1 = O=C([C@H]1CNC[C@@H]1N[*:1])[*:2]; β3hE = N[C@@H](CCC(=O)O)CC(=O)O; β3hN = NC(=O)C[C@H](N)CC(=O)O; β3hL = CC(C)C[C@H](N)CC(=O)O; Nle = CCCC[C@H](N)C(=O)O

Assays:
[1] = molecular target: T1, homodimeric VEGF165 (Homo sapiens, UniProt P15692); assay: competition fluorescence polarization; format: binding
T1 sequence (P15692 1-191 isoform P15692-4): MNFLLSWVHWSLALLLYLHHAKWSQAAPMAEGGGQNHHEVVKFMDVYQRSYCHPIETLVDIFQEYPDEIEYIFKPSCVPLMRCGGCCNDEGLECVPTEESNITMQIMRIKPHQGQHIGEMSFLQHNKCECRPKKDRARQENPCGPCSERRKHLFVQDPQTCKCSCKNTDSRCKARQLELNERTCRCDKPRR

[2] = molecular target: proteinase K (Parengyodontium album, UniProt P06873); assay: proteinase K degradation; conditions: for stability to proteinase K relative to v114*: ratio of t1/2 to that of v114*, standard conditions
Chain of proteinase K (P06873 106-384): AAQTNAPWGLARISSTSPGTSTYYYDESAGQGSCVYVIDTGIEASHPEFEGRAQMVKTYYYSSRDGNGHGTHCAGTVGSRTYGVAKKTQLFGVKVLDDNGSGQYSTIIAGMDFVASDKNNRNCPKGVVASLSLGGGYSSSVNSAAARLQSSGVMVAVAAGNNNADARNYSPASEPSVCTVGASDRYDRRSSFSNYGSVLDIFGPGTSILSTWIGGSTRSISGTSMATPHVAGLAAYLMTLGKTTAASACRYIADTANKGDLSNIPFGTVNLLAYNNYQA

[3] = toxicity control studies; conditions: at the inhibitory concentrations
[4] = test system: human umbilical vein endothelial cells (HUVECs); assay: VEGF-induced HUVEC proliferation; conditions: 10 ng/mL VEGF; tested above and below the measured Ki
[5] = test system: human umbilical vein endothelial cells (HUVECs); conditions: cited from earlier work
[6] = molecular target: T2, v114 (disulfide 5-15); assay: competition fluorescence polarization
T2 chain: VEPNCDIHVMWEWECFERL

[7] = molecular target: v107; assay: competition

Molecule: CCCC[C@@H]1NC(=O)[C@H](C(C)C)NC(=O)[C@H](Cc2c[nH]cn2)NC(=O)[C@H]([C@@H](C)CC)NC(=O)[C@H](CC(=O)O)NC(=O)[C@@H](NC(=O)[C@H](CC(N)=O)NC(=O)[C@@H]2CCCN2C(=O)C[C@H](CCC(=O)O)NC(=O)[C@@H](N)C(C)C)CSSC[C@@H](C(=O)N[C@@H](Cc2ccccc2)C(=O)N[C@H]2CNC[C@@H]2C(=O)N[C@@H](CCCNC(=N)N)C(=O)N[C@H](CC(N)=O)CC(C)C)NC(=O)[C@H](CCC(=O)O)NC(=O)[C@H](Cc2c[nH]c3ccccc23)NC(=O)C[C@H](CCC(=O)O)NC(=O)[C@H](Cc2c[nH]c3ccccc23)NC1=O [compound 2] (H-V[β3hE]PNCDIHV[Nle]W[β3hE]WECF[X1]R[β3hL]-NH2; disulfide 5-15; N-terminus and C-terminus assumed)
- loss of affinity for VEGF (higher Ki) relative to v114* ([1]; ratio of Ki to Ki of v114*): 12 fold

Molecule: CCCC[C@@H]1NC(=O)[C@H](C(C)C)NC(=O)[C@H](Cc2c[nH]cn2)NC(=O)[C@H]([C@@H](C)CC)NC(=O)[C@H](CC(=O)O)NC(=O)[C@@H](NC(=O)C[C@H](CC(N)=O)NC(=O)[C@@H]2CCCN2C(=O)C[C@H](CCC(=O)O)NC(=O)[C@@H](N)C(C)C)CSSC[C@@H](C(=O)N[C@@H](Cc2ccccc2)C(=O)N[C@H]2CNC[C@@H]2C(=O)N[C@@H](CCCNC(=N)N)C(=O)N[C@H](CC(N)=O)CC(C)C)NC(=O)[C@H](CCC(=O)O)NC(=O)[C@H](Cc2c[nH]c3ccccc23)NC(=O)C[C@H](CCC(=O)O)NC(=O)[C@H](Cc2c[nH]c3ccccc23)NC1=O [compound 3] (H-V[β3hE]P[β3hN]CDIHV[Nle]W[β3hE]WECF[X1]R[β3hL]-NH2; disulfide 5-15; N-terminus and C-terminus assumed)
- loss of affinity for VEGF (higher Ki) relative to v114* ([1]; ratio of Ki to Ki of v114*): 27 fold and ~ 27 fold
- principal cleavage site ([2]; proteinase K, mass spectroscopic analysis): between ^nL10 and W11
- stability to proteinase K relative to v114* ([2]; proteinase K): 15 fold
- toxicity [3]: not toxic
- inhibition of VEGF-stimulated HUVEC proliferation, potency in words [4]: less potent than v114*

Molecule: CCCC[C@@H]1NC(=O)[C@H](C(C)C)NC(=O)[C@H](Cc2c[nH]cn2)NC(=O)[C@H]([C@@H](C)CC)NC(=O)[C@H](CC(=O)O)NC(=O)[C@@H](NC(=O)C[C@H](CC(N)=O)NC(=O)[C@@H]2CCCN2C(=O)C[C@H](CCC(=O)O)NC(=O)[C@@H](N)C(C)C)CSSC[C@@H](C(=O)N[C@@H](Cc2ccccc2)C(=O)N[C@H]2CNC[C@@H]2C(=O)N[C@@H](CCCNC(=N)N)C(=O)N[C@H](CC(N)=O)CC(C)C)NC(=O)[C@H](CCC(=O)O)NC(=O)[C@H](Cc2c[nH]c3ccccc23)NC(=O)C[C@H](CCC(=O)O)NC(=O)C[C@H](Cc2c[nH]c3ccccc23)NC1=O [compound 4] (H-V[β3hE]P[β3hN]CDIHV[Nle][β3hW][β3hE]WECF[X1]R[β3hL]-NH2; disulfide 5-15; N-terminus and C-terminus assumed)
- affinity for VEGF lower than that of 3 [1]: ~ 3 fold
- loss of affinity for VEGF (higher Ki) relative to v114* [1]: ~ 77 fold
- resistance to proteolysis relative to 3 [2]: > 10 fold
- stability to proteinase K relative to v114* ([2]; proteinase K): ~190 fold
- toxicity [3]: not toxic
- inhibition of VEGF-stimulated HUVEC proliferation, potency in words [4]: less potent than v114*

Molecule: CC[C@H](C)[C@@H]1NC(=O)[C@H](CC(=O)O)NC(=O)[C@@H](NC(=O)[C@H](CC(N)=O)NC(=O)[C@@H]2CCCN2C(=O)[C@H](CCC(=O)O)NC(=O)[C@@H](N)C(C)C)CSSC[C@@H](C(=O)N[C@@H](Cc2ccccc2)C(=O)N[C@@H](CCC(=O)O)C(=O)N[C@@H](CCCNC(=N)N)C(=O)N[C@@H](CC(C)C)C(N)=O)NC(=O)[C@H](CCC(=O)O)NC(=O)[C@H](Cc2c[nH]c3ccccc23)NC(=O)[C@H](CCC(=O)O)NC(=O)[C@H](Cc2c[nH]c3ccccc23)NC(=O)[C@H](CCSC)NC(=O)[C@H](C(C)C)NC(=O)[C@H](Cc2c[nH]cn2)NC1=O [v114] (H-VEPNCDIHVMWEWECFERL-NH2; disulfide 5-15; N-terminus and C-terminus assumed)
- inhibition of VEGF-induced HUVEC proliferation [5]: inhibits

B1: VEGF165 VEGF165 (protein)
chain: APMAEGGGQNHHEVVKFMDVYQRSYCHPIETLVDIFQEYPDEIEYIFKPSCVPLMRCGGCCNDEGLECVPTEESNITMQIMRIKPHQGQHIGEMSFLQHNKCECRPKKDRARQEKKSVRGKGKGQKRKRKKSRYKSWSVPCGPCSERRKHLFVQDPQTCKCSCKNTDSRCKARQLELNERTCRCDKPRR
- Ki [6]: 70 nM
- Ki [7]: 600 nM
